Data reported in PubChem BioAssay (NCI).
“And” between values parts separate entries of the source, which are not always exact repeats. Equal entries are not always repeated.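 The concentration for 50% growth inhibition is given as GI50. TGI is the concentration that stops growth completely.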

Tests used:
Assay in all cases: inhibition of tumour cell growth, NCI panel, 384-well format
[1] = system: NCI-H460 NSCLC
[2] = system: MOLT-4 leukemia
[3] = system: T-47D breast
[4] = system: SK-MEL-2 melanoma
[5] = system: TK-10 renal
[6] = system: UACC-257 melanoma
[7] = system: RXF 393 renal
[8] = system: LOX IMVI melanoma
[9] = system: MDA-MB-231 breast
[10] = system: OVCAR-5 ovarian
[11] = system: COLO 205 colon
[12] = system: IGROV1 ovarian
[13] = system: NCI-H322M lung
[14] = system: M14 melanoma
[15] = system: NCI-H522 lung
[16] = system: 786-0 renal
[17] = system: MDA-MB-468 breast
[18] = system: SF-539 CNS
[19] = system: OVCAR-8 ovarian
[20] = system: SF-295 CNS
[21] = system: OVCAR-3 ovarian
[22] = system: SK-MEL-28 melanoma
[23] = system: HT29 colon
[24] = system: U251 glioblastoma
[25] = system: HCT-15 colon
[26] = system: NCI/ADR-RES ovarian
[27] = system: NCI-H23 lung
[28] = system: SR leukemia
[29] = system: SK-OV-3 ovarian
[30] = system: KM12 colon
[31] = system: CAKI-1 renal
[32] = system: PC-3 prostate
[33] = system: DU-145 prostate
[34] = system: MALME-3M melanoma
[35] = system: UO-31 renal
[36] = system: A498 renal
[37] = system: SK-MEL-5 melanoma
[38] = system: ACHN renal
[39] = system: HL-60(TB) leukemia
[40] = system: HCT-116 colon
[41] = system: K-562 leukemia
[42] = system: HCC-2998 colon
[43] = system: BT-549 breast
[44] = system: SF-268 CNS
[45] = system: HOP-92 NSCLC
[46] = system: EKVX NSCLC
[47] = system: NCI-H226 lung
[48] = system: A549 NSCLC
[49] = system: RPMI-8226 leukemia
[50] = system: OVCAR-4 ovarian
[51] = system: SNB-19 CNS
[52] = system: MDA-MB-435 melanoma
[53] = system: HS 578T breast
[54] = system: SW-620 colon
[55] = system: MCF7 breast
[56] = system: SNB-75 CNS
[57] = system: HOP-62 NSCLC
[58] = system: SN12C renal
[59] = system: UACC-62 melanoma

`COCCNCCc1cccc(Nc2ncc3c(n2)-c2ccccc2C(c2ccccc2F)C3)c1` (stereo not drawn) was tested. Which GI50 [1] did it give?
The GI50 was 657 nM and 1300 nM.

And the TGI [1]?
Its TGI is 1860 nM and 2650 nM.

And the GI50 [2]?
The GI50 was 670 nM and 543 nM.

And the TGI [2]?
The TGI was 1950 nM and 1790 nM.

And the GI50 [3]?
Its GI50 is 1610 nM and 1710 nM.

What about the TGI [3] of the same molecule?
The TGI was 2970 nM and 3100 nM.

What about the GI50 [4] of the same molecule?
The GI50 was 1360 nM and 1410 nM.

What about the TGI [4] of the same molecule?
Its TGI is 2650 nM and 2730 nM.

What about the GI50 [5] of the same molecule?
The GI50 was 1680 nM and 1620 nM.

What about the TGI [5] of the same molecule?
The TGI was 3060 nM and 2990 nM.

And the GI50 [6]?
The GI50 was 1540 nM and 1670 nM.

And the TGI [6]?
The TGI was 2900 nM and 3060 nM.

And the GI50 [7]?
The GI50 was 612 nM and 1260 nM.

What about the TGI [7] of the same molecule?
The TGI was 1840 nM and 2520 nM.

What about the GI50 [8] of the same molecule?
The GI50 was 1360 nM and 1490 nM.

And the TGI [8]?
Its TGI is 2650 nM and 2830 nM.

And the GI50 [9]?
The GI50 was 1630 nM and 1430 nM.

What about the TGI [9] of the same molecule?
The TGI was 3000 nM and 2750 nM.

What about the GI50 [10] of the same molecule?
Its GI50 is 1790 nM and 1800 nM.

And the TGI [10]?
Its TGI is 3200 nM and 3230 nM.

What about the GI50 [11] of the same molecule?
Its GI50 is 1760 nM and 1740 nM.

What about the TGI [11] of the same molecule?
The TGI was 3170 nM and 3150 nM.

And the GI50 [12]?
The GI50 was 1160 nM and 1190 nM.

And the TGI [12]?
Its TGI is 2390 nM and 2430 nM.

What about the GI50 [13] of the same molecule?
Its GI50 is 1720 nM and 1700 nM.

And the TGI [13]?
Its TGI is 3110 nM and 3090 nM.

And the GI50 [14]?
The GI50 was 1850 nM and 2140 nM.

And the TGI [14]?
Its TGI is 3260 nM and 3610 nM.

And the GI50 [15]?
The GI50 was 1670 nM and 1320 nM.

What about the TGI [15] of the same molecule?
The TGI was 3050 nM and 2610 nM.

What about the GI50 [16] of the same molecule?
Its GI50 is 1250 nM and 1500 nM.

And the TGI [16]?
Its TGI is 2520 nM and 2850 nM.

What about the GI50 [17] of the same molecule?
The GI50 was 2040 nM and 1950 nM.

And the TGI [17]?
Its TGI is 3470 nM and 3370 nM.

And the GI50 [18]?
Its GI50 is 1040 nM and 1550 nM.

What about the TGI [18] of the same molecule?
Its TGI is 2320 nM and 2910 nM.

What about the GI50 [19] of the same molecule?
The GI50 was 1800 nM and 1680 nM.

What about the TGI [19] of the same molecule?
The TGI was 3220 nM and 3080 nM.

What about the GI50 [20] of the same molecule?
The GI50 was 1740 nM and 1820 nM.

What about the TGI [20] of the same molecule?
The TGI was 3140 nM and 3230 nM.

What about the GI50 [21] of the same molecule?
Its GI50 is 1330 nM and 1370 nM.

What about the TGI [21] of the same molecule?
The TGI was 2630 nM and 2680 nM.

What about the GI50 [22] of the same molecule?
The GI50 was 1760 nM and 1830 nM.

And the TGI [22]?
The TGI was 3150 nM and 3240 nM.

And the GI50 [23]?
The GI50 was 1520 nM and 1580 nM.

What about the TGI [23] of the same molecule?
The TGI was 2890 nM and 2980 nM.

And the GI50 [24]?
Its GI50 is 1670 nM and 1980 nM.

What about the TGI [24] of the same molecule?
Its TGI is 3070 nM and 3440 nM.

What about the GI50 [25] of the same molecule?
Its GI50 is 1200 nM and 1300 nM.

And the TGI [25]?
The TGI was 2480 nM and 2620 nM.

What about the GI50 [26] of the same molecule?
The GI50 was 1800 nM and 1890 nM.

And the TGI [26]?
The TGI was 3210 nM and 3380 nM.

What about the GI50 [27] of the same molecule?
Its GI50 is 1640 nM and 1740 nM.

And the TGI [27]?
The TGI was 3020 nM and 3130 nM.

What about the GI50 [28] of the same molecule?
The GI50 was 255 nM and 168 nM.

What about the TGI [28] of the same molecule?
Its TGI is 421 nM and 358 nM.

And the GI50 [29]?
Its GI50 is 1350 nM and 1420 nM.

What about the TGI [29] of the same molecule?
The TGI was 2650 nM and 2760 nM.

And the GI50 [30]?
Its GI50 is 1560 nM and 1740 nM.

And the TGI [30]?
Its TGI is 2920 nM and 3150 nM.

What about the GI50 [31] of the same molecule?
Its GI50 is 1310 nM and 1000 nM.

And the TGI [31]?
The TGI was 2610 nM and 2350 nM.

What about the GI50 [32] of the same molecule?
Its GI50 is 1590 nM and 1400 nM.

What about the TGI [32] of the same molecule?
Its TGI is 2960 nM and 2720 nM.

And the GI50 [33]?
The GI50 was 1680 nM and 1760 nM.

And the TGI [33]?
The TGI was 3070 nM and 3170 nM.

What about the GI50 [34] of the same molecule?
Its GI50 is 1900 nM and 2030 nM.

And the TGI [34]?
The TGI was 3310 nM and 3470 nM.

What about the GI50 [35] of the same molecule?
The GI50 was 1780 nM and 1740 nM.

What about the TGI [35] of the same molecule?
The TGI was 3180 nM and 3140 nM.

And the GI50 [36]?
Its GI50 is 1290 nM and 1430 nM.

And the TGI [36]?
The TGI was 2570 nM and 2760 nM.

What about the GI50 [37] of the same molecule?
The GI50 was 1890 nM and 1860 nM.

What about the TGI [37] of the same molecule?
Its TGI is 3310 nM and 3280 nM.

And the GI50 [38]?
Its GI50 is 1540 nM and 1300 nM.

And the TGI [38]?
Its TGI is 2890 nM and 2600 nM.

And the GI50 [39]?
Its GI50 is 563 nM and 1950 nM.

What about the TGI [39] of the same molecule?
The TGI was 1050 nM and 3390 nM.

What about the GI50 [40] of the same molecule?
The GI50 was 1490 nM and 1740 nM.

And the TGI [40]?
Its TGI is 2860 nM and 3170 nM.

And the GI50 [41]?
The GI50 was 186 nM and 75.8 nM.

And the TGI [41]?
Its TGI is 402 nM and 214 nM.

And the GI50 [42]?
Its GI50 is 1190 nM and 1540 nM.

And the TGI [42]?
The TGI was 2440 nM and 2900 nM.

What about the GI50 [43] of the same molecule?
Its GI50 is 1340 nM and 1690 nM.

What about the TGI [43] of the same molecule?
The TGI was 2630 nM and 3080 nM.

And the GI50 [44]?
Its GI50 is 1600 nM and 1650 nM.

And the TGI [44]?
The TGI was 2960 nM and 3030 nM.

And the GI50 [45]?
Its GI50 is 1550 nM and 1610 nM.

And the TGI [45]?
The TGI was 2900 nM and 2970 nM.

And the GI50 [46]?
Its GI50 is 1550 nM.

What about the TGI [46] of the same molecule?
The TGI was 2910 nM.

And the GI50 [47]?
The GI50 was 1220 nM and 1500 nM.

What about the TGI [47] of the same molecule?
Its TGI is 2470 nM and 2840 nM.

And the GI50 [48]?
Its GI50 is 1780 nM and 1660 nM.

What about the TGI [48] of the same molecule?
Its TGI is 3210 nM and 3070 nM.

What about the GI50 [49] of the same molecule?
Its GI50 is 683 nM and 701 nM.

What about the TGI [49] of the same molecule?
Its TGI is 1860 nM and 1940 nM.

What about the GI50 [50] of the same molecule?
The GI50 was 1330 nM and 1340 nM.

What about the TGI [50] of the same molecule?
Its TGI is 2630 nM and 2640 nM.

What about the GI50 [51] of the same molecule?
The GI50 was 1920 nM and 1930 nM.

What about the TGI [51] of the same molecule?
The TGI was 3350 nM and 3370 nM.

What about the GI50 [52] of the same molecule?
Its GI50 is 1880 nM and 1910 nM.

What about the TGI [52] of the same molecule?
Its TGI is 3300 nM and 3340 nM.

And the GI50 [53]?
Its GI50 is 1300 nM and 1590 nM.

What about the TGI [53] of the same molecule?
Its TGI is 2570 nM and 2940 nM.

What about the GI50 [54] of the same molecule?
Its GI50 is 1830 nM and 2290 nM.

What about the TGI [54] of the same molecule?
The TGI was 3240 nM and 3770 nM.

What about the GI50 [55] of the same molecule?
The GI50 was 1280 nM and 1450 nM.

And the TGI [55]?
The TGI was 2590 nM and 2820 nM.

What about the GI50 [56] of the same molecule?
Its GI50 is 1430 nM and 1540 nM.

And the TGI [56]?
The TGI was 2750 nM and 2880 nM.

What about the GI50 [57] of the same molecule?
The GI50 was 1780 nM.

What about the TGI [57] of the same molecule?
Its TGI is 3180 nM and 3190 nM.

What about the GI50 [58] of the same molecule?
The GI50 was 1310 nM and 906 nM.

What about the TGI [58] of the same molecule?
Its TGI is 2600 nM and 2340 nM.

What about the GI50 [59] of the same molecule?
Its GI50 is 1770 nM and 1650 nM.

And the TGI [59]?
Its TGI is 3180 nM and 3040 nM.
